{"source": "patent US9585878B2", "about": "“Treatment of BDNF-related disorders using laquinimod” (TEVA PHARMACEUTICAL INDUSTRIES, LTD., priority 2009, dated 2017)", "key": {"Balb/c mice [1]": {"system": "Balb/c mice", "assay": "Open Field Test (motility and anxiety parameters)", "assay_type": "in vivo", "procedure": "The Open Field Test—Exploratory locomotor activity used in Examples 3.1 and 3.2 described below is one of the most popular in evaluation of animals' behavior. It tests both motility parameters and anxiety (Prut et al). An individual mouse is placed in a novel plexiglass arena of 50×50 cm the floor of which is divided into 3 digital zones: the outer peripheral zone 1, the medial zone 2 and the most central zone 3. The animal behavior in the open field is recorded by videotaping for 20 min and is analyzed subsequently digitally using Noldus software for animal behavior. The measurements include general motility (distance moved, velocity and strong mobility) and anxiety parameters (including frequency of visits to the central area, time spent in the inner field, and number of rearing events in the center). The more the animal stays and performs in the center, the less anxious it is.\n(§1) Balb/c male mice were divided to 6 groups (5/group) and administered laquinimod (1, 5, 10 and 25 mg/kg p.o. in the form of laquinimod sodium solution via gavage), fluoxetine (positive control 10 mg/kg po) or vehicle daily for 3 days. On the third day, 90 min following administration, mice were exposed to the open field for 20 min. Behavior was video recorded and analyzed using Ethovision software (Noldus Holland).\nas §1, with “(0.5, 1, 5” for “(1, 5, 10”, “field test” for “field”, “minutes.” for “min.”"}, "Balb/c mice [2]": {"system": "Balb/c mice", "assay": "Forced Swim Test (FST)", "assay_type": "in vivo"}, "[3]": {"system": "brain-derived neurotrophic factor (BDNF)", "assay": "Clinical trial in RRMS patients: BDNF concentration in serum by sandwich ELISA", "assay_type": "in vivo, human", "settings": "for Mean BDNF concentration in serum: RRMS patients", "procedure": "A study was initiated in relapsing remitting multiple sclerosis (RRMS) patients using laquinimod, 0.6 mg daily, in the form of the sodium salt, in an oral, once-daily tablet formulation. The study was a multinational, multicenter, randomized, double-blind, parallel-group, placebo controlled study assessing the efficacy, tolerability and safety of two doses of laquinimod in subjects with RRMS. Eligible subjects were randomized into the following three groups:\n1. 0.6 mg of laquinimod per os (p.o.) once daily;\n2. 0.3 mg of laquinimod per os (p.o.) once daily; and\n3. Matching placebo, per os (p.o.) once daily. Subjects must meet the following inclusion criteria to be included in the study:\n• 1. a confirmed MS diagnosis as defined by the McDonald criteria; • 2. a RRMS disease course; • 3. at least one documented relapse n the 12 months prior to screening; • 4. at least one Gadolinium-enhanced lesion on their screening MRI scan; • 5. ambulatory with a Kurtzke EDSS score of 1.0-5.0 (Converted); • 6. between 18-50 years of age inclusive; • 7. relapse-free and off corticosteroids or ACTH for at least 30 days prior to the MRI scan at screening; • 8. relapse-free and off corticosteroids between screening and randomization; • 9. women of child-bearing potential practiced a reliable method of birth control; • 10. willing and able to comply with the protocol requirements for the duration of the study; and • 11. able to give signed, written and informed consent prior to entering the study. Subjects meeting any one of the following exclusion criteria were excluded from the study: • 1. suffered from any form of progressive MS; • 2. use of immunosuppressive or cytotoxic treatments within 6 months prior to the screening visit (including azathioprine, cyclophosphamide and methotrexate); • 3. use of experimental drugs, and/or participation in drug clinical studies within the 6 months prior to screening; • 4. previous treatment with immunomodulators (including IFN-β1a and 1b, glatiramer acetate, laquinimod and IVIG) within the 2 months prior to screening; • 5. use of potent inhibitors of CYP3A4, for example, oral ketoconazole and erythromycin within 2 weeks prior to baseline visit; • 6. previous use of amiodarone; • 7. use of fluoxetine one month prior to baseline visit; • 8. use of substrates of CYP1A2 such as theophylline and warfarin within 2 weeks prior to screening; • 9. previous treatment with cladribine within the last 2 years prior to screening visit; • 10. subjects for whom potential immunosuppression would be contraindicated, for example, Hepatitis B/C or HIV. • 11. previous total body irradiation or total lymphoid irradiation; • 12. chronic corticosteroid treatment (30 or more consecutive days) within the 2 months prior to screening; • 13. pregnancy or breastfeeding; • 14. subjects with a clinically significant or unstable medical or surgical condition that would preclude safe and complete study participation as determined by medical history, physical exams, ECG, abnormal laboratory tests and chest X-ray. • 15. inability to give informed consent, or to complete the study, or if the subject is considered by the investigator to be, for any reason, an unsuitable candidate for the study; • 16. a known history of sensitivity to Gd; or • 17. inability to successfully undergo MRI scanning.\nThe study duration was 40 weeks and consisted of 2 periods: 4 weeks of screening period (week −4 [ screening] to week 0 [ baseline]) and 36 weeks of double blind treatment (week 0 [ baseline] to week 36 [ termination]).\nSubjects were evaluated at study sites at weeks −4, 0, 4, 8, 12, 16, 20, 24, 28, 32 and 36. Samples for inflammatory markers were collected at all visits between 0 and 36 weeks.\nBDNF concentration in serum was measured in patients in the placebo group (102 patients were in the group) and in the 0.6 mg laquinimod group (106 patients were in the group) at week 0 (V0), week 12 (v3) and week 36 (V9). […]"}, "Balb/c mice [4]": {"system": "Balb/c mice", "assay": "Elevated Plus Maze (EPM)", "assay_type": "in vivo", "description": "The EPM model used in Examples 4.1 and 4.2 described below utilizes the natural fear of rodents to avoid open and elevated places. The apparatus consists of a plus-maze with two enclosed and two opposite open arms, elevated above the floor. […] This is one of the most widely used models to study effects of anxiety-like behavior. The maze consisted of two opposing open arms (40×10 cm) and two opposing closed arms (40×10 cm, with 40 cm walls) on a platform 50 cm above the ground. Mice were placed in the center square (10×10 cm) facing an open arm and videotaped during a 5 min exploration. Arm entries and duration were scored when all four paws enter the arm. Balb/c male mice were divided to 6 groups (5/group) and administered laquinimod (0.5, 1, 5 and 25 mg/kg p.o. in the form of laquinimod sodium solution via gavage), fluoxetine (positive control 10 mg/kg po) or vehicle daily for 3 days. On the third day, 90 min following administration, mice were exposed to the EPM for 5 minutes. Mice were placed in the center square (10×10 cm) facing an open arm and videotaped during a 5 minute exploration. Arm entries and duration was scored when all four paws enter the arm. Behavior was video recorded and analyzed using Ethovision software (Noldus Holland). Balb/c male mice were divided to 6 groups (5/group) and administered laquinimod (0.5, 1, 5 and 25 mg/kg p.o. in the form of laquinimod sodium solution via gavage), fluoxetine (positive control 10 mg/kg po) or vehicle daily for 3 days. On the third day, 90 min following administration, mice were exposed to the EPM for 5 min. Behavior was video recorded and open arms parameters were analyzed using Ethovision software (Noldus Holland)."}}, "note": "Entries after “also recorded” stand apart in the source; their conditions may differ."}
{"smiles": "CNCCC(Oc1ccc(C(F)(F)F)cc1)c1ccccc1", "note": "(stereo not drawn) [fluoxetine, reference compound]", "values": [{"measurement": "Anxiety parameters (zone 2) in open field", "setting": "Balb/c mice [1]; Example 3.1, 10 mg/kg p.o. daily for 3 days", "result": "tended to perform more in the center"}, {"measurement": "Motility parameters in open field", "setting": "Balb/c mice [1]; Example 3.1, 10 mg/kg p.o. daily for 3 days, 20 min", "result": "did not modify significantly the motility parameters"}, {"measurement": "Anxiety parameters (zones 2+3) in open field", "setting": "Balb/c mice [1]; Example 3.2, 10 mg/kg p.o. daily for 3 days", "result": "significant anxiolytic effect"}, {"measurement": "Anxiety parameters (zones 2+3) in open field", "setting": "Balb/c mice [1]; Example 3.2, 10 mg/kg p.o. daily for 3 days, listed as Fluoxetine", "result": "performed significantly more in the center"}, {"measurement": "Antidepressant activity in FST", "setting": "Balb/c mice [2]; Example 2.1, positive control 10 mg/kg p.o. daily for 3 days", "result": "did not show significant effect"}, {"measurement": "Antidepressant activity in FST", "setting": "Balb/c mice [2]; Example 2.2, positive control 10 mg/kg p.o. daily for 3 days", "result": "trend to the same activity"}]}
{"smiles": "CCN(C(=O)c1c(O)c2c(Cl)cccc2n(C)c1=O)c1ccccc1", "note": "[Laquinimod, N-ethyl-N-phenyl-1,2-dihydro-4-hydroxy-5-chloro-1-methyl-2-oxoquinoline-3-carboxamide]", "values": [{"measurement": "Difference in BDNF versus placebo group", "setting": "[3]; 0.6 mg/day, V9 (week 36)", "result": "statistically significant"}, {"measurement": "Elevation of BDNF versus placebo group", "setting": "[3]; 0.6 mg/day, starting from V3 (week 12), Confidence Level of 95%", "result": "statistically significant elevation of BDNF"}, {"measurement": "Mean BDNF concentration in serum", "setting": "[3]; 0.6 mg laquinimod p.o. once daily group, baseline week 0 (V0)", "result": 13892.7, "unit": "pg/mL"}, {"measurement": "Mean BDNF concentration in serum", "setting": "[3]; 0.6 mg laquinimod p.o. once daily, week 12 (V3)", "result": 15519.6, "unit": "pg/mL"}, {"measurement": "Mean BDNF concentration in serum", "setting": "[3]; 0.6 mg laquinimod p.o. once daily, week 36 (V9)", "result": 15335.8, "unit": "pg/mL"}, {"measurement": "Difference in mean BDNF, Laquinimod 0.6 mg-Placebo (t Test, unequal variances)", "setting": "[3]; baseline week 0 (V0)", "result": -218.0, "unit": "pg/mL"}, {"measurement": "Difference in mean BDNF, Laquinimod 0.6 mg-Placebo (t Test, unequal variances)", "setting": "[3]; week 12 (V3)", "result": 2445.70, "unit": "pg/mL"}, {"measurement": "Difference in mean BDNF, Laquinimod 0.6 mg-Placebo (t Test, unequal variances)", "setting": "[3]; week 36 (V9)", "result": 2552.21, "unit": "pg/mL"}, {"measurement": "Most potent dose, anxiety parameters (zones 2 and 3) in open field", "setting": "Balb/c mice [1]; Example 3.1", "result": 1, "unit": "mg/kg"}, {"measurement": "Motility parameters in open field", "setting": "Balb/c mice [1]; Example 3.1, 1-25 mg/kg/d x3d p.o., 20 min", "result": "did not modify significantly the motility parameters; also recorded: did not modify general mobility parameters"}, {"measurement": "Anxiety parameters (zone 2) in open field", "setting": "Balb/c mice [1]; Example 3.1, 1-25 mg/kg/d x3d p.o., frequency, time spent, distance moved, rearings", "result": "tendency toward anxiolytic effect"}, {"measurement": "Anxiety parameters (zone 2) in open field", "setting": "Balb/c mice [1]; Example 3.1, 1-25 mg/kg/d x3d p.o., frequency, time spent, distance moved, rearings, listed as laquinimod", "result": "tended to perform more in the center"}, {"measurement": "Anxiety parameters (zones 2 and 3) in open field", "setting": "Balb/c mice [1]; Example 3.1, 1-25 mg/kg/d x3d p.o., time spent, distance moved, rearings", "result": "tendency toward anxiolytic effect"}, {"measurement": "Anxiety parameters (zones 2 and 3) in open field", "setting": "Balb/c mice [1]; Example 3.1, 1-25 mg/kg/d x3d p.o., time spent, distance moved, rearings, listed as laquinimod", "result": "tended to perform more in the center"}, {"measurement": "Most potent dose, anxiety parameters in open field", "setting": "Balb/c mice [1]; Example 3.2", "result": 5, "unit": "mg/kg"}, {"measurement": "Motility parameters in open field", "setting": "Balb/c mice [1]; Example 3.2, 0.5-5 mg/kg (0.5-25 mg/kg/d x3d p.o. tested)", "result": "slight increase in motility"}, {"measurement": "Anxiety parameters (zones 2+3) in open field", "setting": "Balb/c mice [1]; Example 3.2, 0.5-5 mg/kg p.o. daily for 3 days, frequency, time spent, rearings", "result": "performed significantly more in the center; also recorded: significant anxiolytic effect"}, {"measurement": "Antidepressant activity (increased mobility, reduced immobility) in FST", "setting": "Balb/c mice [2]; Example 2.1, 1 mg/kg p.o. daily for 3 days, 90 min after last dose", "result": "significant antidepressant activity"}, {"measurement": "Most active dose in FST", "setting": "Balb/c mice [2]; Example 2.1, doses tested 1-25 mg/kg/d x3d p.o.", "result": 1, "unit": "mg/kg"}, {"measurement": "Antidepressant activity (increased mobility, reduced immobility) in FST", "setting": "Balb/c mice [2]; Example 2.1, higher doses (25 mg/kg) p.o. daily for 3 days", "result": "trend to significance"}, {"measurement": "Antidepressant activity (increased mobility, reduced immobility) in FST", "setting": "Balb/c mice [2]; Example 2.2, 5 and 25 mg/kg p.o. daily for 3 days", "result": "significant antidepressant activity"}, {"measurement": "Anxiolytic activity in EPM", "setting": "Balb/c mice [4]; Example 4.1, 0.5, 1, 5 and 25 mg/kg p.o. daily for 3 days", "result": "anxiolytic activity in a dose dependent manner"}, {"measurement": "Anxiolytic effect in EPM (activity on the open arm)", "setting": "Balb/c mice [4]; Example 4.1, 5 and 25 mg/kg/d x3d p.o., 5 min", "result": "significant anxiolytic effect"}, {"measurement": "Dose of maximal effect in EPM", "setting": "Balb/c mice [4]; Example 4.1, p.o.", "result": 25, "unit": "mg/kg"}, {"measurement": "Anxiolytic activity in EPM", "setting": "Balb/c mice [4]; Example 4.2, 0.5, 1, 5 and 25 mg/kg p.o. daily for 3 days", "result": "anxiolytic activity in a dose dependent manner"}, {"measurement": "Anxiolytic effect in EPM (open arm parameters)", "setting": "Balb/c mice [4]; Example 4.2, 5-25 mg/kg/d x3d p.o., 5 min", "result": "significant anxiolytic effect"}, {"measurement": "Dose of maximal effect in EPM", "setting": "Balb/c mice [4]; Example 4.2, p.o.", "result": "5 to 25", "unit": "mg/kg"}]}
